Publication PMC3257078, “Predicting Antitumor Activity of Peptides by Consensus of Regression Models Trained on a Small Data Sample” (International Journal of Molecular Sciences, 2011)
Like-named read-outs stand apart in the source and are kept apart here.

Tests used:
[1] = system: HeLa (cervical carcinoma); settings: c = 10^-4 M, cited from earlier work
Description: Table 3 Growth inhibition effects of OGF-related peptides. | column: PG(%) ^a / HeLa

[2] = system: SW 620 (colon carcinoma); settings: c = 10^-4 M, cited from earlier work
Description: Table 3 Growth inhibition effects of OGF-related peptides. | column: PG(%) ^a / SW620

[3] = system: MCF-7 (breast carcinoma); settings: c = 10^-4 M, cited from earlier work
Description: Table 3 Growth inhibition effects of OGF-related peptides. | column: PG(%) ^a / MCF-7

[4] = system: SW 620 (colon carcinoma); assay: Proliferation assay (MTT), SW 620 cells; format: cell-based; settings: c = 10^-4 M, 72 h incubation, absorbance 570 nm, quadruplicate in three individual experiments
Description: (§1) Peptides 10, 12–14 as well as trisulfoxide derivative 15 were screened for possible antiproliferative effects on three cell lines: SW 620 (colon carcinoma), MCF-7 (breast carcinoma) and HeLa (cervical carcinoma), according to the previously published procedure. Table 3 summarizes activities found for tested peptides, expressed as percentage of growth (PG) of three cell lines, together with values for OGF and three OGF-related peptides proposed by the SVM radial basis function kernel (RBF). […] Therefore, the approach presented here managed to select peptides with improved biological activities from virtual library.
(§2) The biological potential of prepared compounds has been tested in the Laboratory for experimental therapy (Ruđer Bošković Institute) following the previously published procedure. Briefly, MCF-7, SW 620 and HeLa cells were cultured as monolayers and maintained in Dulbecco’s modified Eagle medium (DMEM), supplemented with 10% fetal bovine serum (FBS), 2mM L-glutamine, 100 U/mL penicillin and 100 μg/mL streptomycin in a humidified atmosphere with 5% CO2 at 37 °C. The panel cell lines were inoculated onto a series of standard 96-well microtiter plates on day 0, at 1 × 10^4 to 3 × 10^4 cells/mL, depending on the doubling times of specific cell line. Test agents were then added in five, 10-fold dilutions (10^−8 to 10^−4 M) and incubated for a further 72 hours. Working dilutions were freshly prepared on the day of testing. The solvent was also tested for eventual inhibitory activity by adjusting its concentration to be the same as in working concentrations. After 72 hours of incubation the cell growth rate was evaluated by performing the MTT assay. For this purpose the substance treated medium was discarded and MTT was added to each well at a concentration of 20 μg/40 μL. After four hours of incubation the precipitates were dissolved in 160 μL of dimethylsulphoxide (DMSO). The absorbance that is directly proportional to the number of living, metabolically active cells was measured on a microplate reader at 570 nm. Each test point was performed in quadruplicate in three individual experiments.

[5] = system: MCF-7 (breast carcinoma); assay: Proliferation assay (MTT), MCF-7 cells; format: cell-based; settings: c = 10^-4 M, 72 h incubation, absorbance 570 nm, quadruplicate in three individual experiments
Description: as §1, §2

[6] = system: HeLa (cervical carcinoma); assay: Proliferation assay (MTT), HeLa cells; format: cell-based; settings: c = 10^-4 M, 72 h incubation, absorbance 570 nm, quadruplicate in three individual experiments
Description: as §1, §2

[7] = Oxidation of Met residues to sulfoxide during acid Boc deprotection; format: physicochemical; settings: cold TFA-H2O (9:1), ice bath, 5 min, full scan MS: only traces of 11 (m/z 750), oxidized forms m/z 766, 782, 798
Experimental: Synthesis of methionine rich peptides 10–14 was based on the 2 + 2 and 2 + 3 coupling between Boc-protected dipeptides 1–4 and H-Met-Met-OH or H-Met-Met-Met-OH (Scheme 1). Different methods of peptide bond formation were tested; finally peptides 5–7 were obtained by the DCC/HOSu method, activation with HATU yielded Ada-containing pentapeptide 8, while pentapeptide 9 was obtained by the mixed anhydride method (details in the Experimental section). Finally, deprotection of the Boc group was performed by acid hydrolysis and extra precautions were taken due to the known susceptibility of methionine residue toward acid-promoted oxidation to sulfoxide. Therefore, deprotection step was performed in ice bath, crude product was immediately purified by the HPLC and residual acid removed by passing through the short C18 column. […] During the purification procedure, only oxidized product 15 was isolated. All prepared compounds were characterized by NMR spectroscopy and deprotected compounds 10 and 12–15 additionally by tandem mass spectrometry and HRMS. The main feature of MS/MS spectra of the molecular [M + H]^+ ions of all peptides is high abundance of Y” and B-type fragment ions (Figure S1, Supplementary Information).
Boc-protected peptides 5–9 were treated with cold TFA-H2O (9:1) mixture in ice bath for 5 min. […]

Row | Substance | PG(%) HeLa (percentage of growth) ([1]; training set peptides) [%] | PG(%) SW620 (percentage of growth) ([2]; training set peptides) [%] | PG(%) MCF-7 (percentage of growth) ([3]; training set peptides) [%] | PG(%) SW620 (percentage of growth) [4] [%] | PG(%) MCF-7 (percentage of growth) [5] [%] | PG(%) HeLa (percentage of growth) [6] [%] | further results
1 | H-Tyr-(S)-Ada-Gly-OH | 90 | 85 | 100 |  |  |  | 
2 | H-Phe-Ala-Met-Met-OH [Compound 13] |  |  |  | 86 | 68 | 71 | 
3 | H-Phe-Ada-Met(O)-Met(O)-Met(O)-OH [Compound 15] |  |  |  | 77 | 82 | 64 | 
4 | H-Phe-Ada-Gly-Phe-Met-OH |  |  |  |  |  |  | PG(%) HeLa (percentage of growth) [1]: 49%; PG(%) SW620 (percentage of growth) [2]: 35%; PG(%) MCF-7 (percentage of growth) [3]: 39%
5 | H-Phe-Ala-Met-Met-Met-OH [Compound 10] |  |  |  | 100 | 74 | 88 | 
6 | H-Tyr-Gly-Gly-Phe-Met-OH [OGF, native opioid growth factor (OGF), Met-enkephalin] |  |  |  | 85 | 92 | 88 | 
7 | H-Phe-Ada-Met-Met-Met-OH [Compound 11, Ada-containing pentapeptide, only traces seen; oxidized to 15 during deprotection] |  |  |  |  |  |  | Susceptibility of Met residues to oxidation (sulfoxide formation) [7]: extreme susceptibility to oxidation
8 | H-Tyr-Ala-Met-Met-Met-OH [Compound 14] |  |  |  | 97 | 71 | 91 | 
9 | H-Phe-Gly-Met-Met-Met-OH [Compound 12] |  |  |  | 95 | 86 | 86 | 
10 | H-Tyr-(S)-Ada-OH | 92 | 72 | 100 |  |  |  | 
11 | H-Phe-Ada-Gly-Phe-Phe-OH |  |  |  |  |  |  | PG(%) HeLa (percentage of growth) [1]: 23%; PG(%) SW620 (percentage of growth) [2]: 39%; PG(%) MCF-7 (percentage of growth) [3]: 41%
12 | H-Tyr-(R)-Ada-Gly-OH | 89 | 87 | 100 |  |  |  | 
13 | H-Tyr-(R)-Ada-OH | 97 | 88 | 99 |  |  |  | 
14 | H-Tyr-Ada-Gly-Phe-Met-OH | 85 | 85 | 100 |  |  |  | 
15 | H-Tyr-Ada-Gly-Phe-Phe-OH |  |  |  |  |  |  | PG(%) HeLa (percentage of growth) [1]: 71%; PG(%) SW620 (percentage of growth) [2]: 38%; PG(%) MCF-7 (percentage of growth) [3]: 81%
